Test results taken from PMC8878047 (Pharmaceutics, 2022).
Where two headings read alike, the source gives them in different places.

Key:
[1] = Procedure: All tests were conducted in the animal experimental center of Guangxi Medical University. Preliminary experiments were needed before starting official tests. […] Groups of mice (n = 10 per group, half male and half female) received different doses of the tested compounds by gavage at the same single dose of drug solution, which was uniformed to be […] (drug solution)/10 g, but containing different concentration of tested drugs. […] We compared these mice with the control group in which the mice were not given drugs, according to the pre-experimental procedure. We closely observed the mice for 6 h after the gavage for signs of toxicity and mortality. As soon as death occurred among the maximum-dose group, we conducted an autopsy and took samples from the main organs for histopathological examination. In addition, we monitored all of the tested mice for 2 weeks to record their weight and mortality.
[2] = tested on: wild type AB strain zebrafish; settings: 30 embryos per well
Procedure: Zebrafish were incubated and grown in the Joint Laboratory established by Shandong Rui’ying Pharmaceutical Group (Heze, China) and China Pharmaceutical University. Both the Wild-type AB (Danio rerio) and Tg(mpx:eGFP) zebrafish strains were maintained under the guidance of the standard procedures of The Zebrafish Book. […] Then the zebrafish were allowed to naturally mate and spawn the next morning. The normally born embryos were then collected after 1 h and kept in an incubating system at 28 °C. The 6 hpf (hour post fertilization) embryos were transferred into a 6-well plate exposed to 5 mL of egg water, in which 30 embryos were in each well.

[3] = 0.01 μM medicated bath, 120 hpf

## CCN1CCN(c2cc3c(cc2F)c(=O)c(C(=O)[O-])cn3C2CC2)CC1.CCN1CCN(c2cc3c(cc2F)c(=O)c(C(=O)[O-])cn3C2CC2)CC1.O.O.O.O.[Ca+2] [EFX-Ca, [Ca(EFX)2(H2O)4]·H2O]
[1]; 2000 mg/kg single gavage, Day-0
  Body Weight (g, x¯ ± SD): 17.51 ± 1.14 g
[1]; 2000 mg/kg single gavage, Day-1
  Body Weight (g, x¯ ± SD): 19.77 ± 1.22 g
[1]; 2000 mg/kg single gavage, Day-4
  Body Weight (g, x¯ ± SD): 25.91 ± 1.83 g
[1]; 2000 mg/kg single gavage, Day-7
  Body Weight (g, x¯ ± SD): 29.78 ± 3.46 g
[1]; 2000 mg/kg single gavage, Day-14
  Body Weight (g, x¯ ± SD): 33.33 ± 5.64 g
[1]; 3031 mg/kg single gavage, Day-0
  Body Weight (g, x¯ ± SD): 18.32 ± 0.94 g
[1]; 3031 mg/kg single gavage, Day-1
  Body Weight (g, x¯ ± SD): 19.61 ± 1.23 g
[1]; 3031 mg/kg single gavage, Day-4
  Body Weight (g, x¯ ± SD): 25.70 ± 1.24 g
[1]; 3031 mg/kg single gavage, Day-7
  Body Weight (g, x¯ ± SD): 28.44 ± 2.14 g
[1]; 3031 mg/kg single gavage, Day-14
  Body Weight (g, x¯ ± SD): 33.91 ± 5.25 g
[1]; 4595 mg/kg single gavage, Day-0
  Body Weight (g, x¯ ± SD): 17.31 ± 1.05 g
[1]; 4595 mg/kg single gavage, Day-1
  Body Weight (g, x¯ ± SD): 17.09 ± 1.56 g
[1]; 4595 mg/kg single gavage, Day-4
  Body Weight (g, x¯ ± SD): 20.10 ± 5.55 g
[1]; 4595 mg/kg single gavage, Day-7
  Body Weight (g, x¯ ± SD): 26.43 ± 5.34 g
[1]; 4595 mg/kg single gavage, Day-14
  Body Weight (g, x¯ ± SD): 33.60 ± 7.07 g
[1]; 6964 mg/kg single gavage, Day-0
  Body Weight (g, x¯ ± SD): 17.68 ± 0.88 g
[1]; 6964 mg/kg single gavage, Day-1
  Body Weight (g, x¯ ± SD): 17.21 ± 1.22 g
[1]; 6964 mg/kg single gavage, Day-4
  Body Weight (g, x¯ ± SD): 16.89 ± 5.13 g
[1]; 6964 mg/kg single gavage, Day-7
  Body Weight (g, x¯ ± SD): 23.11 ± 4.21 g
[1]; 6964 mg/kg single gavage, Day-14
  Body Weight (g, x¯ ± SD): 29.30 ± 5.26 g
[1]; 10,556 mg/kg single gavage, Day-0
  Body Weight (g, x¯ ± SD): 17.67 ± 0.72 g
[1]; 10,556 mg/kg single gavage, Day-1
  Body Weight (g, x¯ ± SD): 17.00 ± 0.30 g
[1]; 10,556 mg/kg single gavage, Day-4
  Body Weight (g, x¯ ± SD): 21.53 ± 2.10 g
[1]; 10,556 mg/kg single gavage, Day-7
  Body Weight (g, x¯ ± SD): 26.47 ± 3.50 g
[1]; 10,556 mg/kg single gavage, Day-14
  Body Weight (g, x¯ ± SD): 34.00 ± 7.50 g
[1]; 16,000 mg/kg single gavage, Day-0
  Body Weight (g, x¯ ± SD): 17.84 ± 1.23 g
[1]; 16,000 mg/kg single gavage, Day-1
  Body Weight (g, x¯ ± SD): 17.43 ± 1.95 g
[1]; 16,000 mg/kg single gavage, Day-4
  Body Weight (g, x¯ ± SD): 23.55 ± 2.66 g
[1]; 16,000 mg/kg single gavage, Day-7
  Body Weight (g, x¯ ± SD): 29.15 ± 2.66 g
[1]; 16,000 mg/kg single gavage, Day-14
  Body Weight (g, x¯ ± SD): 37.25 ± 4.57 g
[2]; 0.01 μM medicated bath, 24 hpf
  statistical death of the tested zebrafish: 6
  statistical survival of the tested zebrafish: 24
[2]; 0.01 μM medicated bath, 48 hpf
  statistical death of the tested zebrafish: 6
  statistical survival of the tested zebrafish: 24
[2]; 0.01 μM medicated bath, 72 hpf
  statistical death of the tested zebrafish: 6
  statistical survival of the tested zebrafish: 24
[2]; 0.01 μM medicated bath, 96 hpf
  statistical death of the tested zebrafish: 8
  statistical survival of the tested zebrafish: 22
[2]; [3]
  statistical death of the tested zebrafish: 8
  statistical survival of the tested zebrafish: 22
[2]; 0.1 μM medicated bath, 24 hpf
  statistical death of the tested zebrafish: 4
  statistical survival of the tested zebrafish: 26
[2]; 0.1 μM medicated bath, 48 hpf
  statistical death of the tested zebrafish: 4
  statistical survival of the tested zebrafish: 26
[2]; 0.1 μM medicated bath, 72 hpf
  statistical death of the tested zebrafish: 4
  statistical survival of the tested zebrafish: 26
[2]; 0.1 μM medicated bath, 96 hpf
  statistical death of the tested zebrafish: 4
  statistical survival of the tested zebrafish: 26
[2]; 0.1 μM medicated bath, 120 hpf
  statistical death of the tested zebrafish: 4
  statistical survival of the tested zebrafish: 26
[2]; 1 μM medicated bath, 24 hpf
  statistical death of the tested zebrafish: 2
  statistical survival of the tested zebrafish: 28
[2]; 1 μM medicated bath, 48 hpf
  statistical death of the tested zebrafish: 2
  statistical survival of the tested zebrafish: 28
[2]; 1 μM medicated bath, 72 hpf
  statistical death of the tested zebrafish: 2
  statistical survival of the tested zebrafish: 28
[2]; 1 μM medicated bath, 96 hpf
  statistical death of the tested zebrafish: 2
  statistical survival of the tested zebrafish: 28
[2]; 1 μM medicated bath, 120 hpf
  statistical death of the tested zebrafish: 2
  statistical survival of the tested zebrafish: 28
[2]; 10 μM medicated bath, 24 hpf
  statistical death of the tested zebrafish: 4
  statistical survival of the tested zebrafish: 26
[2]; 10 μM medicated bath, 48 hpf
  statistical death of the tested zebrafish: 4
  statistical survival of the tested zebrafish: 26
[2]; 10 μM medicated bath, 72 hpf
  statistical death of the tested zebrafish: 4
  statistical survival of the tested zebrafish: 26
[2]; 10 μM medicated bath, 96 hpf
  statistical death of the tested zebrafish: 4
